Columns and labels:
[1] = system: PQQ-dependent soluble glycerol dehydrogenase from Pseudomonas sp. TE3493 (FERM BP-4169); assay: Km determination of purified glycerol dehydrogenase (ferricyanide activity assay); format: biochemical; settings: purified enzyme of Example 1
Description: (§1) Hereunder is explained a method for the determination of the activity of the novel glycerol dehydrogenase according to the present invention. To the reaction solution are added 0.7 ml of a 50 mM Tris--HCl buffer solution, 0.1 ml of a 0.1 M glycerol and the enzyme solution to a total volume of 0.9 ml. The mixture was preheated at 25° C. for 5 minutes, and 0.1 ml of a 0.1 M potassium ferricyanide was added thereto for the initiation of the reaction. The reaction is terminated by addition of 0.5 ml of ferric sulfate/Dupanol reagent thereto, after which 3.5 ml of distilled water is added thereto to a total volume of 5 ml. Then the mixture was allowed to stand at 25° C. for 30 minutes, followed by measurement of absorbance at 660 nm. A blank test is carried out in the same manner as the above-mentioned one, but adding distilled water instead of the enzyme solution. The activity of glycerol dehydrogenase is expressed with one unit (U) being defined as the enzyme activity which oxidizes 1 μmole of glycerol in 1 minute under the conditions specified above.
In a 500 ml Sakaguchi flask there were placed 100 ml of a culture medium which contained 0.5% glycerol, 0.2% NaNO3, 0.2% (NH4)2 SO4, 1% K2 HPO4, 1% KH2 PO4, 0.02% MgSO4.7H2 O and 0.05% yeast extracts, followed by autoclaving at 121° C. for 15 minutes. One loopful of cells of Pseudomonas sp. […]

[2] = system: PQQ-dependent membrane-bound glycerol dehydrogenase from Gluconobacter industrius IFO 3260; assay: Km determination of comparison glycerol dehydrogenase (membrane-bound); format: biochemical; settings: enzyme preparation of Comparison 1, solubilized with dimethyldodecylamine oxide
Description: as §1
Gluconobacter industrious IFO3260 was cultivated in the same manner as in Example 1. The culture solution was centrifuged to harvest the cells which were then subjected to a conventional manner to yield a membrane fraction. […]

Q: How did the Km [1] turn out when `OCC(O)CO` [glycerol] was run?
A: The Km was 2.45 mM.

Q: And the Km [2]?
A: The Km was 34 mM.

Source: patent US5614374A, “Glycerol dehydrogenase, process for its production and its use” (Toyo Boseki Kabushiki Kaisha, priority 1992, dated 1997)
